Experiments:
target gene SOD1 [1] = experiment: Test Example 4: lipid conjugated siRNA sequences with different carbon chain lengths, SOD1 in mouse brain, lateral ventricle administration; type: in vivo, C57BL/6j mice; design: Right hemisphere Mean value of inhibition rate / Left hemisphere Mean value of inhibition rate: unit not given here; settings: lateral ventricle, 150 μg per mouse, D5
Method: 6-8 Week-old C57BL/6j mice were randomly grouped by body weight. Mice in each group were administered with siRNA by lateral ventricle administration, with an administration dose per mouse depending on a specific test. Taking Bregma in mouse brain as point 0 (origin), coordinates of right ventricle were found using the cerebral stereotaxic apparatus and position was marked on surface of skull (position of lateral ventricle was AP (anteroposterior, bregma anterior and posterior): −0.58 mm, ML (mediolateral, left and right of middle raphe): −1.2 mm, DV (dorsoventral, up and down cerebral dura mater plane): −2.2 mm). A dental electric drill was used to drill in the skull above a position of interest, and then medicament was injected into the lateral ventricle by a micro-dosing pump, wherein a total injection volume was 5 μL, and injection duration was 10 min. Needle was retained for 5 min after completion of injection, and then slowly withdrawn. Afterwards, needle hole was sealed with biomedical glue, and then head skin was adhered. After animals woke up, the animals were returned back to animal house and further fed. PBS control group was administered with the same volume of siRNA-free PBS solution. The day of administration was recorded as 0 day (D0), and the mice were sacrificed at observation point after the administration. Different parts of brain region were respectively taken and stored in the RNAlater.
(§1) RNA extraction: the above tissue samples were taken out from the RNAlater, and smashed for 60 s in Tissuelyser type II full-automatic tissue homogenizer, and total RNAs of various tissue samples were extracted using the full-automatic nucleic acid extraction instrument and the nucleic acid extraction kit from Zhejiang Hanwei Science and Technology Co. Ltd. according to methods described in instructions.
(§2) Reverse transcription reaction: 1 μg of the extracted total RNAs of the tissue samples were taken, and configured into 20 μL of reverse transcription system according to a method described in kit instructions by using a reverse transcription kit (Reverse Transcription System, A3500) from Promega Corporation and selecting Oligo (dT)15 reverse transcription primers, and the reverse transcription reaction was completed. After the reaction was ended, 80 μL of RNase-Free water was added into the reverse transcription system to provide cDNA solution for Real-time PCR detection.
(§3) Real-time PCR detection: 20 μL of Real-time PCR reaction system per PCR detection well was configured according to a method described in kit instructions using SYBR™ Select Master Mix (Catalog number: 4472908) reagent from ABI company. Each detection system contained 5 μL of cDNA template obtained from the above reverse transcription reaction, 10 μL of SYBR™ Select Master Mix, 0.5 μL of 10 μM upstream primers, 0.5 μL of 10 μM downstream primers, and 4 μL of RNase-Free H2O. The configured reaction system was subjected to Real-time PCR amplification on ABI StepOnePlus PCR instrument by a three-step method, wherein an amplification procedure was pre-denaturation at 95° C. for 10 min, then denaturation at 95° C. for 30 s, annealing at 60° C. for 30 s, and extension at 72° C. for 30 s; and processes of denaturation, annealing, and extension were repeated for 40 cycles. Gene expression differences were calculated by the ΔΔCt method after completion of the procedure.
In the real-time fluorescence quantitative PCR method, relative quantitative calculation of remaining expression level and inhibition rate of gene mRNA of interest in various test groups was performed by the ΔΔCt method, and the calculation method is as follows: […]

target gene SOD1 [2] = experiment: Test Example 9: inhibitory activity of lipid conjugated siRNA sequences on SOD1 in mouse muscle tissues; type: in vivo, C57BL/6j mice; settings: D14
Method: as §1, §2, §3
In the real-time fluorescence quantitative PCR method, relative quantitative calculation of remaining expression level and inhibition rate of gene mRNA of interest in various test groups was performed by the ΔΔCt method, and the calculation method is as follows:
The present test example evaluated, by an evaluation method for inhibitory activity on a target gene in mice, the inhibitory activity of siRNA sequence RZ899090 with the sense strand with the NM073 conjugation at Position 4, siRNA sequence RZ899091 with the sense strand with the NM074 conjugation at Position 4, siRNA sequence RZ899078 with the sense strand with the NM202 conjugation at Position 6 and siRNA reference sequence RZ899093 with the sense strand with the Uhd conjugation at Position 4, siRNA reference sequence RZ899076 with the sense strand with the NM200 conjugation at Position 4 on the target gene SOD1 of interest in muscle tissues in different parts of mice.
6-8 Week-old C57BL/6j mice were randomly grouped by body weight, 5 per group, 6 groups in total. Mice in each group were dosed with the above siRNA conjugates by tail vein injection, with an administration dose of 5 mg/kg per mouse, and an administration volume of 150 μL. PBS control group was administered with the same volume of siRNA conjugate-free PBS solution. The day of administration was recorded as D0, and 5 mice in each group were sacrificed on D14 after administration. Tissues such as left hind leg quadriceps muscle, diaphragm, and heart tissues were respectively taken and stored in the RNAlater. RNA extraction, reverse transcription, and real-time fluorescence quantitative detection were performed on various tissues according to the above method, and gene expression differences were calculated by the above ΔΔCt method.

RZ899078: siRNA sequence with the sense strand with the NM202 (C22) conjugation at Position 6; SEQ ID NO: 20 / 24 (sense UUUUANUCCUCACUCUAAA; antisense UUUAGAGUGAGGAUUAAAAUG; NM202 (C22) conjugate at sense position 6; modified_base 1..2 OTHER; 2'-methoxy and 5'-thiophosphate modified nucleotides; modified_base 3..5 OTHER; 2'-methoxy modified nucleotides; modified_base 6 OTHER; n is the synthetic nucleotide analog NM202 as described in the disclosure.; modified_base 7..10 OTHER; 2'-fluoro modified nucleotides; modified_base 11..19 OTHER; modified_base 1 OTHER; 2'-methoxy and 5'-thiovinylphosphonate modified nucleotide; modified_base 2 OTHER; 2'-fluoro and 5'-thiophosphate modified nucleotide; modified_base 6 OTHER;)
Left hemisphere Mean value of inhibition rate (target gene SOD1 [1]; left hemisphere (non-administration side)): 30.24
Right hemisphere Mean value of inhibition rate (target gene SOD1 [1]; right hemisphere (administration side)): 52.15
Diaphragm % Mean value of inhibition rate (target gene SOD1 [2]; diaphragm, tail vein injection 5 mg/kg): 47.67%
inhibitory activity compared with the NM200 conjugated reference sequence RZ899076 (target gene SOD1 [2]; heart tissues, tail vein 5 mg/kg): superior inhibitory activity
Heart % Mean value of inhibition rate (target gene SOD1 [2]; heart, tail vein injection 5 mg/kg): 68.69%
Left quadriceps muscle % Mean value of inhibition rate (target gene SOD1 [2]; left hind leg quadriceps muscle, tail vein injection 5 mg/kg): 32.10%
inhibitory action on the left quadriceps muscle and diaphragm (target gene SOD1 [2]; left quadriceps muscle and diaphragm, tail vein 5 mg/kg): certain inhibitory action
